System: NCI-N87 cells
Test: Inhibition of proliferation of NCI-N87 cells (CCK-8)
Format: cell-based
Settings: 72 hours, FIG. 14
Experimental: The growth curve of NCI-N87 was initially determined by plating cells at various densities in 96-well tissue culture plates. Cells were gown in RPMI-1640 medium supplemented with 10% fetal bovine serum (FBS).
24 hours later, 10 μl of antibody construct diluted to various concentrations with the medium were added to the cell culture. After the cells were cultured for additional 72 hours, the cell proliferation rates were determined by adding 10 μl of CCK-8 reagent (Sigma). After 3 hour of incubation without light, the plates were read at OD450 nm. The wells without addition of antibody were set as 100% cell viability and Docetaxel was used as a positive control for cytotoxicity. The data were then fitted into 4-parameter sigmoidal curve to generate IC50. The samples were done in triplicate.

| Substance | growth inhibition | growth inhibition effect compared with other antibodies |
| --- | --- | --- |
| T51: Biparatopic Fab-Ig: Bip_mAb_HC11 (VH_Pert_T30A; VH_Tra_N54T/D98S) with Tra_LC_N30S_S56Y; Fc M428L | inhibited growth | had greater effect than pertuzumab (mAb T1) or trastuzumab (mAb T22) |
| T52: Biparatopic Fab-Ig: Bip_mAb_HC12 (VH_Pert_T30A/G56A; VH_Tra_N54T/D98S) with Tra_LC_N30S_S56Y | inhibited growth | had greater effect than pertuzumab (mAb T1) or trastuzumab (mAb T22) |
| T54: Biparatopic knob/hole heterodimer: HC14 (pert T30A) and HC15 (Tra N54T/D98S) with Tra_LC_N30S_S56Y | inhibited growth | had greater effect than pertuzumab (mAb T1) or trastuzumab (mAb T22) |
| pertuzumab [T1, reference compound] | minimal effect | somewhat greater effect |
